The subject of test [1] is Ehrlich's ascites adenocarcinoma. Briefly: Antitumor activity on Ehrlich's ascites adenocarcinoma in mice. The format is in vivo, Barbados mice. Particulars: n = 10. The procedure:
The antitumor activity of the compositions were studied in models of Ehrlich's ascites carcinoma in young Barbados mice of both sexes with weights between 15-17 g (68 individuals), which were kept on a vivarium diet.
45 mice were inoculated from a mouse with adenocarcinoma using an insulin syringe with 0.1 ml ascitic fluid in the region of the liver.
Ten mice were administered Composition in liposome form (see Table 5). Ten more mice were administered the Composition substance, and ten more were administered a 0.9% solution of sodium chloride with lipids.

For the next test, the system named is benzidine skin sarcoma. Briefly: Anticancer activity on benzidine skin sarcoma in mice. It is filed as in vivo, Barbados mice. Particulars: n = 10. An excerpt:
Composition led to a 95% degeneration of tumor cells. To confirm the in vivo antitumor activity, Composition was studied in benzidine skin sarcoma and reinjected ascites adenocarcinomas in Barbados mice. In five mice with adenocarcinomas, the distribution of the Composition liposome throughout the animals' bodies was also studied using a fluorescent probe dissolved in a phospholipid layer.
A Study of the Anticancer Activity of Composition on Benzidine Sarcoma. Before applying it to the silica gel, 7 ml of a solution of 2% benzidine and 0.9% sodium chloride was added until an opalescent suspension was formed (1 g silica gel for 5 ml NaCl solution). Twenty-five Barbados mice of both sexes with a weight of 18-20 g that were kept on a vivarium diet were administered benzidine and phorbol acetate immobilized on silica gel subcutaneously near the neck. After two weeks, 18 animals had developed tumors of different sizes in the form of a small bump on the neck near the silica gel granulomas. Each group of animals was administered the corresponding compound parenterally at a dose of 100 mcg/kg weight twice a day for two weeks, beginning at 16 days after administration of the carcinogen.

The subject of a further test is HeLa-2 cells. Briefly: Anticancer (cytopathic) activity in a culture of HeLa-2 cells, Minimum Active Dose. The format is cell-based. The note with it: minimum amount causing degeneration of 90-95% of the cells; 199 medium; observed 5 days. The protocol:
Anticancer activity of Composition in a cell culture was made in a culture of HeLa-2 cells. For this purpose, 2-12 mcg of Composition per ml of medium were added to the 199 medium. A culture without Composition in it was used as a control. Cultures were observed daily over the course of five days. The Minimum Active Dose (MAD) of Composition was also considered to be the minimum amount of the drug that caused a degeneration of 90-95% of the cells (Table 1.)
Background: Cytopathic effects are the visible damage that an infection or toxin causes in cultured cells.

For the molecule `CC(=O)O[C@@]12CO[C@@H]1C[C@H](O)[C@@]1(C)C(=O)[C@H](O)C3=C(C)[C@@H](OC(=O)[C@H](O)[C@@H](NC(=O)OC(C)(C)C)c4ccccc4)C[C@@](O)([C@@H](OC(=O)c4ccccc4)[C@H]21)C3(C)C` [Taxotere], the results for the “Time of Death of Animals after the First Injection, Average Value, Experimental Animals” value in test [1] (in liposomes (+)) and in test [1] (substance without liposomes (−)) were 15 ± 0.5 days and 14 ± 0.12 days, respectively. Also, the “Animal Survival” value in the test with benzidine skin sarcoma turned out to be 28 ± 1.1 days. Besides, the “MAD (Minimum Active Dose)” value in the test on HeLa-2 cells turned out to be 10 µg/mL.
